Read-outs that look alike come from different tables or passages of the source.
What was measured:
MOLT-4 = assay: Cell viability assay (MTS) in MOLT-4 cells; type: cell-based; settings: Homo sapiens, MOLT-4
Description: (§1) Acute lymphoblastic leukemia cells (MOLT-4 and RS4; 11) were incubated with increasing concentrations of Bcl-xL degraders for 48 h. Cell viability was measured by tetrazolium-based MTS assay.

RS4; 11 = assay: Cell viability assay (MTS) in RS4; 11 cells; type: cell-based; settings: Homo sapiens, RS4-11
Description: as §1

[1] = Table 2, 48 hr, MTS, read-out: Anti-Cancer Activity IC50 (48 hr) MOLT-4
[2] = Table 2, 48 hr, MTS, read-out: Anti-Cancer Activity IC50 (48 hr) RS4, 11
[3] = Table 2A, 48 hr, MTS, read-out: Anti-Cancer Activity IC50 (48 hr) MOLT-4
[4] = Table 2A, 48 hr, MTS, read-out: Anti-Cancer Activity IC50 (48 hr) RS4, 11

| SMILES | IC50 (MOLT-4; [1]) [µM] | IC50 (RS4; 11; [2]) [µM] | IC50 (MOLT-4; Table 5, 48 h, read-out: MOLT-4 48 h IC50) [µM] | IC50 (RS4; 11; Table 5, 48 h, read-out: RS4 48 h IC50) [µM] | IC50 (MOLT-4; [3]) [µM] | IC50 (RS4; 11; [4]) [µM] |
| --- | --- | --- | --- | --- | --- | --- |
| Cc1ncsc1-c1ccc([C@H](C)NC(=O)[C@@H]2C[C@@H](O)CN2C(=O)[C@@H](NC(=O)COCCOCc2cn(CC3(C)CCC(c4ccc(Cl)cc4)=C(CN4CCN(c5ccc(C(=O)NS(=O)(=O)c6ccc(N[C@H](CCN7CCOCC7)CSc7ccccc7)c(S(=O)(=O)C(F)(F)F)c6)cc5)CC4)C3)nn2)C(C)(C)C)cc1 (stereo partly drawn) [Compound 21, (2S,4R)-1-((2S)-2-(2-(2-((1-((4′-chloro-4-methyl-6-((4-(4-(((4-(((R)-4-morpholino-1-(phenylthio)butan-2-yl)amino)-3-((trifluoromethyl)sulfonyl)phenyl)sulfonyl)carbamoyl)phenyl)piperazin-1-yl)methyl)-2,3,4,5-tetrahydro-[1,1′-biphenyl]-4-yl)methyl)-1H-1,2,3-triazol-4-yl)methoxy)ethoxy)acetamido)-3,3-dimethylbutanoyl)-4-hydroxy-N—((S)-1-(4-(4-methylthiazol-5-yl)phenyl)ethyl)pyrrolidine-2-carboxamide] | 0.1 to 0.5 | 0.02 to 0.1 | – | – | – | – |
| CCN(CCO)CC[C@H](CSc1ccccc1)Nc1ccc(S(=O)(=O)NC(=O)c2ccc(N3CCN(CC4=C(c5ccc(Cl)cc5)CCC(C)(CN5CCN(C(=O)CCCCCCC(=O)N[C@H](C(=O)N6C[C@H](O)C[C@H]6C(=O)N[C@@H](C)c6ccc(-c7scnc7C)cc6)C(C)(C)C)CC5)C4)CC3)cc2)cc1[N+](=O)[O-] (stereo partly drawn) [Compound 43, (2S,4R)-1-((2S)-2-(8-(4-((4′-chloro-6-((4-(4-(((4-(((R)-4-(ethyl(2-hydroxyethyl)amino)-1-(phenylthio)butan-2-yl)amino)-3-nitrophenyl)sulfonyl)carbamoyl)phenyl)piperazin-1-yl)methyl)-4-methyl-2,3,4,5-tetrahydro-[1,1′-biphenyl]-4-yl)methyl)piperazin-1-yl)-8-oxooctanamido)-3,3-dimethylbutanoyl)-4-hydroxy-N—((S)-1-(4-(4-methylthiazol-5-yl)phenyl)ethyl)pyrrolidine-2-carboxamide] | 0.02 to 0.1 | < 0.02 | 0.0785 | 0.0073 | – | – |
| Cc1ncsc1-c1ccc([C@H](C)NC(=O)[C@@H]2C[C@@H](O)CN2C(=O)[C@@H](NC(=O)CNC(=O)c2ccc(N3CCN(CCN(C)CC4(C)CCC(c5ccc(Cl)cc5)=C(CN5CCN(c6ccc(C(=O)NS(=O)(=O)c7ccc(N[C@H](CCN8CCOCC8)CSc8ccccc8)c(S(=O)(=O)C(F)(F)F)c7)cc6)CC5)C4)CC3)cc2)C(C)(C)C)cc1 (stereo partly shown) [Compound 13] | 0.1 to 0.5 | 0.1 to 0.5 | – | – | – | – |
| Cc1ncsc1-c1ccc([C@H](C)NC(=O)[C@@H]2C[C@@H](O)CN2C(=O)[C@@H](NC(=O)CCCNC(=O)c2ccc(N3CCN(CC4(C)CCC(c5ccc(Cl)cc5)=C(CN5CCN(c6ccc(C(=O)NS(=O)(=O)c7ccc(N[C@H](CCN8CCOCC8)CSc8ccccc8)c(S(=O)(=O)C(F)(F)F)c7)cc6)CC5)C4)CC3)nc2)C(C)(C)C)cc1 (stereo partly shown) [Compound 2] | 0.02 to 0.1 | 0.02 to 0.1 | – | – | – | – |
| Cc1ncsc1-c1ccc([C@H](C)NC(=O)[C@@H]2C[C@@H](O)CN2C(=O)[C@@H](NC(=O)CCCCCCC(=O)N2CCN(CCC3(C)CCC(c4ccc(Cl)cc4)=C(CN4CCN(c5ccc(C(=O)NS(=O)(=O)c6ccc(N[C@H](CCN7CCOCC7)CSc7ccccc7)c(S(=O)(=O)C(F)(F)F)c6)cc5)CC4)C3)CC2)C(C)(C)C)cc1 (stereo partly drawn) [Compound 28, (2S,4R)-1-((2S)-2-(8-(4-(2-(4′-chloro-4-methyl-6-((4-(4-(((4-(((R)-4-morpholino-1-(phenylthio)butan-2-yl)amino)-3-((trifluoromethyl)sulfonyl)phenyl)sulfonyl)carbamoyl)phenyl)piperazin-1-yl)methyl)-2,3,4,5-tetrahydro-[1,1′-biphenyl]-4-yl)ethyl)piperazin-1-yl)-8-oxooctanamido)-3,3-dimethylbutanoyl)-4-hydroxy-N—((S)-1-(4-(4-methylthiazol-5-yl)phenyl)ethyl)pyrrolidine-2-carboxamide] | 0.1 to 0.5 | 0.02 to 0.1 | – | – | – | – |
| Cc1ncsc1-c1ccc([C@H](C)NC(=O)[C@@H]2C[C@@H](O)CN2C(=O)[C@@H](NC(=O)CCCCCCC(=O)N2CCN(CC3(C)CCC(c4ccc(Cl)cc4)=C(CN4CCN(c5ccc(C(=O)NS(=O)(=O)c6ccc(N[C@H](CCN7CCOCC7)CSc7ccccc7)c([N+](=O)[O-])c6)cc5)CC4)C3)CC2)C(C)(C)C)cc1 (stereo partly drawn) [Compound 33, (2S,4R)-1-((2S)-2-(8-(4-((4′-chloro-4-methyl-6-((4-(4-(((4-(((R)-4-morpholino-1-(phenylthio)butan-2-yl)amino)-3-nitrophenyl)sulfonyl)carbamoyl)phenyl)piperazin-1-yl)methyl)-2,3,4,5-tetrahydro-[1,1′-biphenyl]-4-yl)methyl)piperazin-1-yl)-8-oxooctanamido)-3,3-dimethylbutanoyl)-4-hydroxy-N—((S)-1-(4-(4-methylthiazol-5-yl)phenyl)ethyl)pyrrolidine-2-carboxamide] | 0.02 to 0.1 | < 0.02 | – | – | – | – |
| Cc1ncsc1-c1ccc([C@H](C)NC(=O)[C@@H]2C[C@@H](O)CN2C(=O)[C@@H](NC(=O)CCCCCCC(=O)N2CCN(C[C@]3(C)CCC(c4ccc(Cl)cc4)=C(CN4CCN(c5ccc(C(=O)NS(=O)(=O)c6ccc(N[C@H](CCN7CCCCC7)CSc7ccccc7)c([N+](=O)[O-])c6)cc5)CC4)C3)CC2)C(C)(C)C)cc1 [Compound 40, (2S,4R)-1-((S)-2-(8-(4-(((R)-4′-chloro-4-methyl-6-((4-(4-(((3-nitro-4-(((R)-1-(phenylthio)-4-(piperidin-1-yl)butan-2-yl)amino)phenyl)sulfonyl)carbamoyl)phenyl)piperazin-1-yl)methyl)-2,3,4,5-tetrahydro-[1,1′-biphenyl]-4-yl)methyl)piperazin-1-yl)-8-oxooctanamido)-3,3-dimethylbutanoyl)-4-hydroxy-N—((S)-1-(4-(4-methylthiazol-5-yl)phenyl)ethyl)pyrrolidine-2-carboxamide] | < 0.02 | < 0.02 | – | – | – | – |
| Cc1ncsc1-c1ccc([C@H](C)NC(=O)[C@@H]2C[C@@H](O)CN2C(=O)[C@@H](NC(=O)COCCOCc2cn(CCCC(=O)NCC3(C)CCC(c4ccc(Cl)cc4)=C(CN4CCN(c5ccc(C(=O)NS(=O)(=O)c6ccc(N[C@H](CCN7CCOCC7)CSc7ccccc7)c(S(=O)(=O)C(F)(F)F)c6)cc5)CC4)C3)nn2)C(C)(C)C)cc1 (stereo partly shown) [Compound 23] | 0.5 to 10 | 0.5 to 10 | – | – | – | – |

Results, then the compound that gave them:

| IC50 (MOLT-4; [1]) [µM] | IC50 (RS4; 11; [2]) [µM] | IC50 (MOLT-4; Table 5, 48 h, read-out: MOLT-4 48 h IC50) [µM] | IC50 (RS4; 11; Table 5, 48 h, read-out: RS4 48 h IC50) [µM] | IC50 (MOLT-4; [3]) [µM] | IC50 (RS4; 11; [4]) [µM] | SMILES |
| --- | --- | --- | --- | --- | --- | --- |
| < 0.02 | 0.02 to 0.1 | – | – | – | – | Cc1ncsc1-c1ccc([C@H](C)NC(=O)[C@@H]2C[C@@H](O)CN2C(=O)[C@@H](NC(=O)CCCCCCCNC(=O)c2ccc(N3CCN(C[C@]4(C)CCC(c5ccc(Cl)cc5)=C(CN5CCN(c6ccc(C(=O)NS(=O)(=O)c7ccc(N[C@H](CCN8C[C@H]9C[C@@H]8CO9)CSc8ccccc8)c(S(=O)(=O)C(F)(F)F)c7)cc6)CC5)C4)CC3)nc2)C(C)(C)C)cc1 [Compound 74] |
| – | – | – | – | < 0.02 | < 0.02 | Cc1ncsc1-c1ccc([C@H](C)NC(=O)[C@@H]2C[C@@H](O)CN2C(=O)[C@@H](NC(=O)CCCCC(=O)N2CCC(C3CCN(C[C@]4(C)CCC(c5ccc(Cl)cc5)=C(CN5CCN(c6ccc(C(=O)NS(=O)(=O)c7ccc(N[C@H](CCN8CCCOCC8)CSc8ccccc8)c(S(=O)(=O)C(F)(F)F)c7)cc6)CC5)C4)CC3)CC2)C(C)(C)C)cc1 [Compound 116] |
| – | – | – | – | 0.02 to 0.1 | < 0.02 | Cc1ncsc1-c1ccc([C@H](C)NC(=O)[C@@H]2C[C@@H](O)CN2C(=O)[C@@H](NC(=O)CCCCS(=O)(=O)N2CCN(C[C@]3(C)CCC(c4ccc(Cl)cc4)=C(CN4CCN(c5ccc(C(=O)NS(=O)(=O)c6ccc(N[C@H](CCN7CCCOCC7)CSc7ccccc7)c(S(=O)(=O)C(F)(F)F)c6)cc5)CC4)C3)CC2)C(C)(C)C)cc1 [Compound 110] |
| < 0.02 | < 0.02 | – | – | – | – | Cc1ncsc1-c1ccc([C@H](C)NC(=O)[C@@H]2C[C@@H](O)CN2C(=O)[C@@H](NC(=O)CCCCCCC(=O)N2CCN(C[C@]3(C)CCC(c4ccc(Cl)cc4)=C(CN4CCN(c5ccc(C(=O)NS(=O)(=O)c6ccc(N[C@H](CCN7CCOC(C)C7)CSc7ccccc7)c(S(=O)(=O)C(F)(F)F)c6)cc5)CC4)C3)CC2)C(C)(C)C)cc1 (stereo partly drawn) [Compound 91, (2S,4R)-1-((2S)-2-(8-(4-(((4R)-4′-chloro-4-methyl-6-((4-(4-(((4-(((2R)-4-(2-methylmorpholino)-1-(phenylthio)butan-2-yl)amino)-3-((trifluoromethyl)sulfonyl)phenyl)sulfonyl)carbamoyl)phenyl)piperazin-1-yl)methyl)-2,3,4,5-tetrahydro-[1,1′-biphenyl]-4-yl)methyl)piperazin-1-yl)-8-oxooctanamido)-3,3-dimethylbutanoyl)-4-hydroxy-N—((S)-1-(4-(4-methylthiazol-5-yl)phenyl)ethyl)pyrrolidine-2-carboxamide] |
| – | – | – | – | < 0.02 | < 0.02 | Cc1ncsc1-c1ccc([C@H](C)NC(=O)[C@@H]2C[C@@H](O)CN2C(=O)[C@@H](NC(=O)COCCCNC(=O)c2ccc(N3CCN(C[C@]4(C)CCC(c5ccc(Cl)cc5)=C(CN5CCN(c6ccc(C(=O)NS(=O)(=O)c7ccc(N[C@H](CCN8CCCOCC8)CSc8ccccc8)c(S(=O)(=O)C(F)(F)F)c7)cc6)CC5)C4)CC3)nn2)C(C)(C)C)cc1 [Compound 111] |
